Structures are written as SMILES.

The experiment addresses T1, EanB (Chlorobium limicola, UniProt B3ECE3).
T1 sequence (B3ECE3 1-457): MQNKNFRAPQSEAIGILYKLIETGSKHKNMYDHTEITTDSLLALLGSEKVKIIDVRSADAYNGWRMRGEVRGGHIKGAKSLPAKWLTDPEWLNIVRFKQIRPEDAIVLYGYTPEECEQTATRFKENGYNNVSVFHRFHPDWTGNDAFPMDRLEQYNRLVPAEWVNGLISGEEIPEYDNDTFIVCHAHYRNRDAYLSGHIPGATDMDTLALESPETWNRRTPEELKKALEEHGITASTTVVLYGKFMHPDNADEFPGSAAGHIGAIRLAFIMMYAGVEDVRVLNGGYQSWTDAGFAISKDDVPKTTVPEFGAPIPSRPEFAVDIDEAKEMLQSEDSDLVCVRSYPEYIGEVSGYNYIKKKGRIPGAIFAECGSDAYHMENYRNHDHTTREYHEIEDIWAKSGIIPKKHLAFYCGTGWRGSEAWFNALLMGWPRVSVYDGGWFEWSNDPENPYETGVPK
Put plainly: hercynine epsilon-C-H/D2O exchange kinetics by LC-MS, purified enzyme. Format: biochemical.

As for `C[N+](C)(C)[C@@H](Cc1cnc[nH]1)C(=O)[O-]` [compound 2, hercynine], the dissociation constant Kd (as a rule, the concentration at which binding is half-saturated) was determined as 161 ± 18.6 µM.
